# Results from patent US5317086A, “Cysteine proteinase inhibitors and inhibitor precursors” (The Regents of the University of California, priority 1992, dated 1994).
# Non-standard residues stand in square brackets, D forms with d. Residues, ends and D or L forms follow the SMILES beside them. ξ: configuration not given here. *: point of attachment. MeOSuc = COC(=O)CCC(=O)*; ξF = NC(Cc1ccccc1)C(=O)O
# Target: T1, papain (Carica papaya, UniProt P00784)
# T1 construct: purchased Sigma
# T1 sequence (P00784 134-345): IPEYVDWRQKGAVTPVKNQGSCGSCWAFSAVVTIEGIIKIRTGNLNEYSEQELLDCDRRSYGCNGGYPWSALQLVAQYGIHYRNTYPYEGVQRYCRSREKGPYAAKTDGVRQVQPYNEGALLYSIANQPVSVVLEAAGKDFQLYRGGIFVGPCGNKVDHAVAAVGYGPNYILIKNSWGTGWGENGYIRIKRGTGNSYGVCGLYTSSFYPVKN
# Experiment: Irreversible inhibition of papain (preincubation and 3000-fold dilution assay)
# Assay type: biochemical
# Conditions: control; 0.020 μM (666Ki) incubated with papain, diluted to (0.2 Ki); over 2.5 hr
# Description: Papain (Sigma, 2x recrystallized) (1 mg/mL) was activated at 25° C. for 30 min prior to use in a solution of 0.1mM EDTA, 0.5 mM L-cysteine hydrochloride, and 0.06 mM mercaptoethanol, and was then diluted (20 μL to 1.0 mL) and stored at 4° C. for use in the assays. The cysteine and mercaptoethanol buffers were prepared fresh daily. The standard assay conditions consisted of 50 mM phosphate, 0.2 M NaCl, 5 mM EDTA, 2 mM dithiothreitol (DTT), 0.2% bovine serum albumin (BSA) and 20% CH3 CN, pH 6.5. However, these concentrations were obtained by dilution of a buffer of 100 mM phosphate, 0.4 M NaCl, 10 mM EDTA, 4 mM DTT at pH 6.5 to a final volume of 1 mL with the necessary amounts of CH3 CN and H2 O. The DTT and BSA were added fresh daily to the phosphate buffer. Kinetic measurements were performed by monitoring the fluorescence of 7-amino-4-methylcoumarin (MCA) [1 (excitation) 350 nm, 1 (emission) 460 nm] released upon hydrolysis of the substrate, CbzPheArgMCA. […] The Km was determined in duplicate runs by fitting rate vs. [S] using the program ENZFITTER. […]
# The incomplete deactivation can be attributed to the increasing amounts of aldehyde present over time, which as a reversible inhibitor protects papain against alkylation. The dilution assay also provided evidence that the inhibition measured in the reversible assay was not due to trace amounts of aldehyde contamination. […]
compound,measurement,value
COC(=O)CCC(=O)NC(Cc1ccccc1)C(=O)NCC=O (stereo not shown) [MeOSucPheGlyCHO] (MeOSuc-[ξF]-Gly-aldehyde),loss of papain activity,8%
